This note sets out measurements from US20180028480A1, “METHODS OF REDUCING OR PREVENTING OXIDATIVE MODIFICATION OF MEMBRANE POLYUNSATURATED FATTY ACIDS” (Amarin Pharmaceuticals Ireland Limited, priority 2015, published 2018).

For one assay, the system named is human sdLDL. Briefly: Copper-induced sdLDL oxidation, TBARS (Example 6). It counts as biochemical. To be noted: 1.0 μM to 10.0 μM; 2 hr copper oxidation. As to the method: An experiment to study the antioxidant effect of EPA in small dense LDL (“sdLDL”) was performed. EPA was purchased from Sigma-Aldrich (Saint Louis, Mo.) and solubilized in ethanol to 1 mM under nitrogen atmosphere. Vitamin E (α-tocopherol) was purchased from Sigma-Aldrich and prepared in ethanol at 1.0 mM (c=3.06×10^4 M^−1 cm^−1 at 294 nm) just prior to experimental use. All test compounds were further diluted in ethanol or aqueous buffer as needed.
Venous blood was collected from healthy volunteers into vacutainer tubes containing sodium EDTA. Plasma was separated by centrifugation at 3000 g for 25 min at 4° C. and adjusted to a density of 1.020 g/mL with KBr. […]
LDL and sdLDL subfractions (0.6 mL each) were incubated with either 10 μL vehicle (ethanol) or 10 μL drug stock solution for 30 min to 1 hr at 37° C. […] Sample TBARS concentrations were determined spectrophotometrically by measuring sample absorbances against a standard curve derived from the hydrolysis of 1,1,3,3-tetramethoxypropane.
Data are presented as mean±S.D. for (N) separate samples or treatment groups. Differences between groups were analyzed using the two-tailed, Student's t-test (for comparisons between only two groups) or ANOVA followed by Dunnett or Student-Newman-Keuls multiple comparisons post-hoc analysis (for comparisons between three or more groups). […]

Assay [1] can be described thus: Small angle x-ray diffraction of glucose-treated model membranes: structure and cholesterol domains (Example 4). To be noted: for effect on membrane structure compared to control: 0 hours, 1:30 drug-to-phospholipid mole ratio, glucose 200 mg/dL. As to the method: Multilamellar vesicles (MLVs) were prepared as binary mixtures of DLPC (1.0 or 2.5 mg total phospholipid per sample) and cholesterol at a fixed cholesterol-to-phospholipid (C/P) mole ratio of 0.6:1. Component lipids (in chloroform) were transferred to 13×100 mm borosilicate culture tubes and combined with vehicle (ethanol) or an equal volume of fatty acid, vitamin E, or ATM stock solutions, each adjusted to achieve desired treatment concentrations. Samples were shell-dried under nitrogen gas and placed under vacuum for 1 h to remove residual solvent. After desiccation, each sample was resuspended in 1.0 mL glucose-containing saline to yield final phospholipid concentrations of 1.0 or 2.5 mg/mL (for lipid peroxidation or x-ray diffraction analysis, respectively). Lipid suspensions were then vortexed for 3 min at ambient temperature to form MLVs.
The membrane structural effects of glucose and the various compounds examined in this study were measured at 0, 72, and 96 hour intervals. Membrane lipid vesicles were oriented for x-ray diffraction analysis as described by others (e.g., Herbette et al., Biophys. J., vol. 20(2), pages 245-272 (1977)). Briefly, a 100 μL aliquot (containing 250 μg MLV) was aspirated from each sample and transferred to a Lucite® sedimentation cell fitted with an aluminum foil substrate upon which a given sample could be collected by centrifugation. Samples were then loaded into a Sorvall AH-629 swinging bucket rotor (DuPont Corp., Wilmington, Del.) and centrifuged at 35,000 g, 5° C., for 90 min.
After centrifugal orientation, sample supernatants were aspirated and aluminum foil substrates, each supporting a single membrane pellet, were removed from the sedimentation cells. […]
The d-space for any given membrane multibilayer is a measurement of the unit cell periodicity of the membrane lipid bilayer (e.g., the distance from the center of one lipid bilayer to the next including surface hydration), and is calculated from Bragg's Law, hλ=2 d sin θ, where h is the diffraction order, λ is the wavelength of the x-ray radiation (1.54 Å), d is the membrane lipid bilayer unit cell periodicity, and θ is the Bragg angle equal to one-half the angle between the incident beam and scattered beam.
The presence of cholesterol domains in a given membrane sample results in the production of distinct Bragg (diffraction) peaks having singular periodicity values of 34 and 17 Å (typically referred to as first- and second-order cholesterol domain peaks). Under the specific temperature and relative humidity conditions established for these experiments, the second-order, 17 Å cholesterol domain peak was well-delineated from other, neighboring cholesterol and phospholipid diffraction peaks and was thus used to quantitate relative cholesterol domain peak intensity. […]

Regarding `CC/C=C\C/C=C\C/C=C\C/C=C\C/C=C\CCCC(=O)O` [EPA, cis-5,8,11,14,17-Eicosapentaenoic acid], the sdLDL oxidation entry with human sdLDL was “inhibited sdLDL oxidation over a broad range of concentrations”. For the same molecule, the “effect on membrane structure compared to control” value in assay [1] is listed as “no appreciable effect on membrane structure”.
Regarding `Cc1c(C)c2c(c(C)c1O)CC[C@@](C)(CCC[C@H](C)CCC[C@H](C)CCCC(C)C)O2` [vitamin E, α-tocopherol, reference compound], the sdLDL oxidation entry in the assay on human sdLDL is on record as “did not inhibit sdLDL oxidation except at the highest concentration”. In addition, in assay [1], the “effect on membrane structure compared to control” value is listed as “no appreciable effect on membrane structure”. Moreover, in assay [1] (96 hours of oxidative conditions), the cholesterol domain peaks entry is reported as “disproportionately greater”. For the same molecule, the “effect on cholesterol domain formation (cholesterol domain peak intensity) compared to control” value in assay [1] (any experimental time point (FIG. 5)) is listed as “no significant effect on cholesterol domain formation”.
